{
  "source": "ChEMBL document CHEMBL5715940",
  "about": "(Curr Biol, 2007)",
  "key": {"HeLa [1]": {"tested_on": "HeLa", "assay": "Induction of mitotic arrest in human HeLa cells with expressing H2B-GFP assessed as cells formed multilobed nuclei at 100 nM", "format": "functional, cell-based"}, "[2]": {"molecular_target": "Serine/threonine-protein kinase PLK1 (Homo sapiens) (UniProt P53350)", "sequence (P53350 whole entry)": "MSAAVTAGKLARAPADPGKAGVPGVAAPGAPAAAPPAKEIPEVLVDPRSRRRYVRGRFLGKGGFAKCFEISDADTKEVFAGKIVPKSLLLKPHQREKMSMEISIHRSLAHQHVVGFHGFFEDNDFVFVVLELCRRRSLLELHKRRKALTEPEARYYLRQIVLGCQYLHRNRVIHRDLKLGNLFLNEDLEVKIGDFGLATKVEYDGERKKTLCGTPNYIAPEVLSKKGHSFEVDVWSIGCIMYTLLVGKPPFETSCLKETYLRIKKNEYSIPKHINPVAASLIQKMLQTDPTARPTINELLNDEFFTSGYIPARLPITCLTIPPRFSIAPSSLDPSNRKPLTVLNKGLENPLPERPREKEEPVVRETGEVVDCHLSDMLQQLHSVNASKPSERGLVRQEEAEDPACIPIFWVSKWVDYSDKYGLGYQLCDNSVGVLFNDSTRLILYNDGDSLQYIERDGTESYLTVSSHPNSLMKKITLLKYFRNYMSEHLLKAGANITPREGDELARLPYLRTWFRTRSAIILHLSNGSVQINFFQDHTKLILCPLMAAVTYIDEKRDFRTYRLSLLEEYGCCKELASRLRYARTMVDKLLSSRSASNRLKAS", "assay": "Inhibition of Plk1 in human HeLa cells assessed as low level of cyclin B in total lysates of cells arrested in mitosis at 100 nM for 13 hr after the second thymidine release by immunoblot analysis"}, "[3]": {"molecular_target": "Serine/threonine-protein kinase PLK1 (Homo sapiens) (UniProt P53350)", "assay": "Inhibition of Plk1 in human HeLa cells assessed as high level of cyclin B in total lysates of cells arrested in mitosis at 50 ng/ml for 13 hr after the second thymidine release by immunoblot analysis"}, "HeLa [4]": {"tested_on": "HeLa", "assay": "Induction of mitotic arrest in human HeLa cells s stably expressing CENPA-GFP assessed as attachment of kinetochores to microtubule at 10 uM for 2 hrs by live cell imaging analysis", "format": "functional, cell-based"}, "HeLa [5]": {"tested_on": "HeLa", "assay": "Induction of mitotic arrest in human HeLa cells s stably expressing CENPA-GFP assessed as microtubules instantaneously organized to monopolar spindle at 100 nM for 4 hrs after NEBD by immunofluorescence analysis", "format": "functional, cell-based"}, "HeLa [6]": {"tested_on": "HeLa", "assay": "Induction of mitotic arrest in human HeLa cells assessed as cell population in prophase incubated for 4 hrs after thymidine release relative to control relative to control", "format": "functional"}, "HeLa [7]": {"tested_on": "HeLa", "assay": "Induction of mitotic arrest in human HeLa cells assessed as increase of cell population in prophase incubated for 6 hrs after thymidine release", "format": "functional, cell-based"}, "HeLa [8]": {"tested_on": "HeLa", "assay": "Induction of mitotic arrest in human HeLa cells stably expressing CENPA-GFP assessed as appearance of shortened spindle formation at 10 uM incubated for 120 mins by live cell imaging analysis", "format": "functional, cell-based"}, "HeLa [9]": {"tested_on": "HeLa", "assay": "Induction of mitotic arrest in human HeLa cells assessed as microtubule structures at 100 nM incubated for 2 hrs after cold treatment by immunofluorescence analysis", "format": "functional, cell-based"}, "HeLa [10]": {"tested_on": "HeLa", "assay": "Induction of mitotic arrest in human HeLa cells with expressing H2B-GFP assessed as enter the apoptosis at 100 nM", "format": "functional, cell-based"}, "HeLa [11]": {"tested_on": "HeLa", "assay": "Induction of mitotic arrest in human HeLa cells assessed as appearance of shortened spindle formation at 100 nM for 60 mins after thymidine release in the presence of MG132 by immunofluorescence microscopy", "format": "functional, cell-based"}, "HeLa [12]": {"tested_on": "HeLa", "assay": "Induction of mitotic arrest in human HeLa cells assessed as dim kinetochore signal in prometaphase arrested cells at 100 nM for 2 hrs by immunofluorescence analysis", "format": "functional, cell-based"}, "HeLa [13]": {"tested_on": "HeLa", "assay": "Induction of mitotic arrest in human HeLa cells assessed as weakly centrosome in prometaphase arrested cells at 100 nM for 2 hrs by immunofluorescence analysis", "format": "functional, cell-based"}, "HeLa [14]": {"tested_on": "HeLa", "assay": "Induction of mitotic arrest in human HeLa cells s stably expressing CENPA-GFP assessed as spindle poles often broadened at 10 uM for 30 mins by live cell imaging analysis", "format": "functional, cell-based"}, "HeLa [15]": {"tested_on": "HeLa", "assay": "Induction of mitotic arrest in human HeLa cells s stably expressing CENPA-GFP assessed as spindles lost astral microtubules at 10 uM within 10 to 30 mins by live cell imaging analysis", "format": "functional, cell-based", "conditions": "time 10-30 min"}, "HeLa [16]": {"tested_on": "HeLa", "assay": "Induction of mitotic arrest in human HeLa cells s stably expressing CENPA-GFP assessed as focus on poles at 10 uM within 10 to 30 mins by live cell imaging analysis", "format": "functional, cell-based", "conditions": "time 10-30 min"}, "HeLa [17]": {"tested_on": "HeLa", "assay": "Induction of mitotic arrest in human HeLa cells s stably expressing CENPA-GFP assessed as appear on mitotic microtubule at 100 nM for 4 hr release after NEBD by immunofluorescence analysis", "format": "functional, cell-based"}, "HeLa [18]": {"tested_on": "HeLa", "assay": "Induction of mitotic arrest in human HeLa cells with stably express GFP-tagged histone H2B assessed as decrease in prometaphase after thymidine release", "format": "functional, cell-based"}, "HeLa [19]": {"tested_on": "HeLa", "assay": "Induction of mitotic arrest in human HeLa cells assessed as appearance of kinetochore in opposite side of the chromosomes at 100 nM incubated for 2 hrs after cold treatment by transmission electron microscopy", "format": "functional, cell-based"}, "HeLa [20]": {"tested_on": "HeLa", "assay": "Induction of mitotic arrest in human HeLa cells assessed as increase of cell population in prophase incubated for 3 hrs after thymidine release", "format": "functional, cell-based"}, "HeLa [21]": {"tested_on": "HeLa", "assay": "Induction of mitotic arrest in human HeLa cells with expressing H2B-GFP assessed as cells formed multilobed nuclei at 100 nM in the presence of hesperadin", "format": "functional, cell-based"}, "HeLa [22]": {"tested_on": "HeLa", "assay": "Induction of mitotic arrest in human HeLa cells assessed as appearance of spindles lose the focused poles at 100 nM for 30 mins after thymidine release in the presence of MG132 by immunofluorescence microscopy", "format": "functional, cell-based"}, "HeLa [23]": {"tested_on": "HeLa", "assay": "Induction of mitotic arrest in human HeLa cells s stably expressing CENPA-GFP assessed as appearance of kinetochore pairs lose at 10 uM for 60 mins by live cell imaging analysis", "format": "functional, cell-based"}, "HeLa [24]": {"tested_on": "HeLa", "assay": "Induction of mitotic arrest in human HeLa cells assessed as appearance of collapse spindle formation at 100 nM for 120 mins after thymidine release in the presence of MG132 by immunofluorescence microscopy", "format": "functional, cell-based"}, "HeLa [25]": {"tested_on": "HeLa", "assay": "Induction of mitotic arrest in human HeLa cells with stably express GFP-tagged histone H2B assessed as chromosome condensation measured at 730 mins after thymidine release", "format": "functional, cell-based"}, "HeLa [26]": {"tested_on": "HeLa", "assay": "Induction of mitotic arrest in human HeLa cells s stably expressing CENPA-GFP assessed as prophase microtubule asters at 100 nM for 4 hr after release by immunofluorescence analysis", "format": "functional, cell-based"}, "HeLa [27]": {"tested_on": "HeLa", "assay": "Induction of mitotic arrest in human HeLa cells assessed as appearance of kinetochore plates connected to few microtubules and lateral attachment at 100 nM incubated for 2 hrs after cold treatment by transmission electron microscopy", "format": "functional, cell-based"}, "[28]": {"molecular_target": "Serine/threonine-protein kinase PLK1 (Homo sapiens) (UniProt P53350)", "conditions": "HeLa, dose 100.0 nM, time 12.0 min"}, "HeLa [29]": {"tested_on": "HeLa", "assay": "Induction of mitotic arrest in human HeLa cells assessed as appearance of kinetochore plates arranged on the spindle center at […] incubated for 2 hrs after cold treatment by transmission electron microscopy", "format": "functional, cell-based"}, "[30]": {"molecular_target": "Serine/threonine-protein kinase PLK1 (Homo sapiens) (UniProt P53350)", "conditions": "HeLa, dose 100.0 nM, time 12.0 min", "remark": "listed apart in the source"}, "HeLa [31]": {"tested_on": "HeLa", "assay": "Induction of mitotic arrest in human HeLa cells assessed as appearance of microtubule bundles visible at many kinetochores at […] incubated for 2 hrs after cold treatment by transmission electron microscopy", "format": "functional, cell-based"}, "HeLa [32]": {"tested_on": "HeLa", "assay": "Induction of mitotic arrest in human HeLa cells assessed as K-fibers persisted cells at […] incubated for 2 hrs after cold treatment by immunofluorescence analysis", "format": "functional, cell-based"}},
  "note": "Activity calls are given as the source filed them. The rule behind the calls is not given here. Residues, ends and D or L forms follow the SMILES beside them. *: point of attachment. Cbz = O=C(OCc1ccccc1)*",
  "data": [
    {"smiles": "CCS(=O)(=O)Nc1ccc2c(c1)/C(=C(\\Nc1ccc(CN3CCCCC3)cc1)c1ccccc1)C(=O)N2", "values": [
      {"measurement": "Activity", "setting": "HeLa [1]", "value": "Active"},
      {"measurement": "inhibition", "setting": "[2]", "value": "Active"}
    ]},
    {"smiles": "COC(=O)Nc1nc2cc(C(=O)c3cccs3)ccc2[nH]1", "values": [
      {"measurement": "inhibition", "setting": "[3]", "value": "Active"}
    ]},
    {"smiles": "CC(C)C[C@@H](C=O)NC(=O)[C@H](CC(C)C)NC(=O)[C@H](CC(C)C)NC(=O)OCc1ccccc1", "note": "(Cbz-Leu-Leu-Leu-aldehyde)", "values": [
      {"measurement": "Activity", "setting": "HeLa [4]", "value": "Active"}
    ]},
    {"smiles": "CC[C@@H]1C(=O)N(C)c2cnc(Nc3ccc(C(=O)NC4CCN(C)CC4)cc3OC)nc2N1C1CCCC1", "note": "[BI-2536]", "values": [
      {"measurement": "Activity", "setting": "HeLa [5]", "value": "Active"},
      {"measurement": "Activity", "setting": "HeLa [6]", "value": 30, "unit": "%"},
      {"measurement": "Activity", "setting": "HeLa [7]", "value": "Active"},
      {"measurement": "Activity", "setting": "HeLa [8]", "value": "Active"},
      {"measurement": "Activity", "setting": "HeLa [9]", "value": "inactive"},
      {"measurement": "Activity", "setting": "HeLa [10]", "value": "Active"},
      {"measurement": "Activity", "setting": "HeLa [11]", "value": "Active"},
      {"measurement": "Activity", "setting": "HeLa [12]", "value": "Active"},
      {"measurement": "Activity", "setting": "HeLa [13]", "value": "Active"},
      {"measurement": "Activity", "setting": "HeLa [14]", "value": "Active"},
      {"measurement": "Activity", "setting": "HeLa [15]", "value": "Active"},
      {"measurement": "Activity", "setting": "HeLa [16]", "value": "Active"},
      {"measurement": "Activity", "setting": "HeLa [17]", "value": "Active"},
      {"measurement": "Activity", "setting": "HeLa [18]", "value": "Active"},
      {"measurement": "Activity", "setting": "HeLa [19]", "value": "Active"},
      {"measurement": "Activity", "setting": "HeLa [20]", "value": "Active"},
      {"measurement": "Activity", "setting": "HeLa [21]", "value": "Active"},
      {"measurement": "Activity", "setting": "HeLa [22]", "value": "Active"},
      {"measurement": "Activity", "setting": "HeLa [23]", "value": "Active"},
      {"measurement": "Activity", "setting": "HeLa [24]", "value": "Active"},
      {"measurement": "Activity", "setting": "HeLa [25]", "value": "Active"},
      {"measurement": "Activity", "setting": "HeLa [26]", "value": "inactive"},
      {"measurement": "Activity", "setting": "HeLa [27]", "value": "Active"}
    ]},
    {"smiles": "CCOC(=O)C1=C(C)NC(=S)NC1c1cccc(O)c1", "note": "(stereo not drawn) [MONASTROL]", "values": [
      {"measurement": "Activity", "setting": "HeLa [6]", "value": 5, "unit": "%"},
      {"measurement": "inhibition", "setting": "[28]", "value": "Active"},
      {"measurement": "Activity", "setting": "HeLa [29]", "value": "Active"},
      {"measurement": "inhibition", "setting": "[30]", "value": "Active"},
      {"measurement": "Activity", "setting": "HeLa [31]", "value": "Active"},
      {"measurement": "Activity", "setting": "HeLa [32]", "value": "Active"}
    ]}
  ]
}
